One series deals with Kv1.3 (UniProt P16390). The series is described as follows: Whole-cell patch-clamp block of Kv1.3 current. As to conditions: for Kd: L929 cells stably expressing mKv1.3 or activated human T cells, fit of normalized peak current to Hill equation. The series is classed as cell-based. The method, then:
The effectiveness of the generated compounds in blocking the Kv1.3 current was assayed on L929 cells stably expressing mKv1.3 or on activated human T cells. The generation of this cell line has been previously described (Grissmer et al. (1995) Mol. Pharmacol. 45: 1227). The cells were grown in Dulbecco's modified Eagle's medium containing 10% fetal calf serum, 2 mM L-glutamine, 1 mM Na^+ pyruvate, 100 units/ml penicillin, 100 μg/ml streptomycin and 250 μg G418 (to keep them under selection pressure). The cells were studied in the whole-cell configuration of the patch-clamp technique. The holding potential in all experiments was −80 mV. Currents were recorded in normal Ringer solution (160 mM NaCl, 4.5 mM KCl, 2 mM CaCl2, 1 mM MgCl2, 10 mM HEPES, pH 7.4, 290-310 mOsm) with an internal pipette solution containing 134 mM KF, 2 mM MgCl2, 10 mM HEPES, 10 mM EGTA (pH 7.2, 290-310 mOsm). If currents exceeded 2 nA 60-80% series resistance compensation was used. 200-ms depolarising pulses to 40 mV were applied every 30 s (Grissmer at al. (1995) Mol. Pharmacol. 45: 1227). Each compound was tested twice at two different concentrations. Kd values were determined by fitting the reduction of the normalized peak current to the Hill equation. […]
For orientation: In patch-clamp work, channel activity is measured electrically.

Series [1] in a line: Solubility in aqueous media. The series is classed as physicochemical. As to conditions: judged by whether testable in the cell-based T-cell proliferation assay. The source says:
(§1) The comparative example 4 was thus considered to lack therapeutically use.
This was unexpected given the lipophilicity of these compounds. The n-butyl fragment in example 2 is considerably more lipophilic than the phenyl group located in the equivalent position of comparative example 4 (fragment hydrophobicity value 2.5 verses 1.9 respectively).

For series [2], the system named is peripheral blood mononuclear cells. The series is described as follows: [3H]-Thymidine incorporation assay. The series is classed as cell-based, human. As to conditions: anti-CD3 stimulated PBMC, 48 h; for Normalised [3H]-TdR incorporation: untreated control = 1. As for the experimental part: [^3H]-thymidine incorporation is a widely used test to assay the proliferative activity of human and rodent lymphocytes. As cells divide [^3H]-thymidine will be incorporated into the newly synthesised DNA of the resulting daughter cells. The faster cells grow the more radioactive [^3H]-thymidine will be incorporated. Any compound that inhibits lymphocytes proliferation will reduce the uptake of radioactivity by the cells treated with it compared to the untreated controls.
Example 2 was tested to determine its ability to inhibit [H]-thymidine incorporation. Resting peripheral blood mononuclear cells from healthy volunteers were seeded at 2×10^5 cells per well in medium (RPMI 1640 supplemented 10% fetal calf serum, 2 mM glutamine, 1 mM sodium pyruvate, 1% nonessential amino acids, 100 units/ml penicillin, 100 μg/ml streptomycin and 50 μM β-mercaptoethanol) in flat-bottom 96 well plates (final volume 200 μl). Cells were pre-incubated with the compound of example 2 for 60 min, and were stimulated with 5 ng/ml anti-CD3 Ab) for 48 h. [^3H]-Thymidine (1 μCi per well) was added for the last 6 h. Cells were harvested onto glass fibre filters and radioactivity measured in a scintillation counter. All experiments were done in triplicate.
On the technique in general: Dividing cells build labelled thymidine or BrdU into new DNA.

The target of the next series is Kv1.2 (Homo sapiens, UniProt P16389). The series is described as follows: Whole-cell patch-clamp, Kv1.2. It counts as cell-based.
Another series addresses Kv1.1 (Homo sapiens, UniProt Q09470). The experiment in a line: Whole-cell patch-clamp, Kv1.1. It counts as cell-based.
The next series is described as follows: Stability. The series is classed as physicochemical.
From the text: as §1

The target in the next series is SKMI (Homo sapiens, UniProt P35499). The experiment in a line: Whole-cell patch-clamp, SKMI. The series is classed as cell-based. As to conditions: at 10 μM.
For a further series, the target named is Kv1.4 (Homo sapiens, UniProt P22459). The experiment in a line: Whole-cell patch-clamp, Kv1.4. It counts as cell-based.
The next series has as its target IKCa1 (Homo sapiens, UniProt O15554). The experiment in a line: Whole-cell patch-clamp, IKCa1. It counts as cell-based.
The target of a further series is Kv1.5 (Homo sapiens, UniProt P22460). The series is described as follows: Whole-cell patch-clamp, Kv1.5. It counts as cell-based.
Kv1.5, sequence (P22460 whole entry): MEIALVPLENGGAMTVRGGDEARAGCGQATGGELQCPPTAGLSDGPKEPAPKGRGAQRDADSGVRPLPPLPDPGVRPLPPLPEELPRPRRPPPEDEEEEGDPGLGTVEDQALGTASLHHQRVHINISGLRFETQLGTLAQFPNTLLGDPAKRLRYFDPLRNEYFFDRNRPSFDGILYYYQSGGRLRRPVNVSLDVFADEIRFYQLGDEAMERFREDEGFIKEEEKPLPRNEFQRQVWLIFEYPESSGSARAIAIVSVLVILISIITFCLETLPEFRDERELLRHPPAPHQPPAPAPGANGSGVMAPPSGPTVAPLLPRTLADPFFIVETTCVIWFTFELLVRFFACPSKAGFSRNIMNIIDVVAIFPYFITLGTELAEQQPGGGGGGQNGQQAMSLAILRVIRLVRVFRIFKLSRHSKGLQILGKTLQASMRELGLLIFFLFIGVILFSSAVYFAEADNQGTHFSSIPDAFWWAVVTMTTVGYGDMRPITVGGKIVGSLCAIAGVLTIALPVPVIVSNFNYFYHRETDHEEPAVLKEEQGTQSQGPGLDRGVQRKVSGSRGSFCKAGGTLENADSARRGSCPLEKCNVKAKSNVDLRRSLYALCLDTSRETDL

Kv1.2, sequence (P16389 whole entry): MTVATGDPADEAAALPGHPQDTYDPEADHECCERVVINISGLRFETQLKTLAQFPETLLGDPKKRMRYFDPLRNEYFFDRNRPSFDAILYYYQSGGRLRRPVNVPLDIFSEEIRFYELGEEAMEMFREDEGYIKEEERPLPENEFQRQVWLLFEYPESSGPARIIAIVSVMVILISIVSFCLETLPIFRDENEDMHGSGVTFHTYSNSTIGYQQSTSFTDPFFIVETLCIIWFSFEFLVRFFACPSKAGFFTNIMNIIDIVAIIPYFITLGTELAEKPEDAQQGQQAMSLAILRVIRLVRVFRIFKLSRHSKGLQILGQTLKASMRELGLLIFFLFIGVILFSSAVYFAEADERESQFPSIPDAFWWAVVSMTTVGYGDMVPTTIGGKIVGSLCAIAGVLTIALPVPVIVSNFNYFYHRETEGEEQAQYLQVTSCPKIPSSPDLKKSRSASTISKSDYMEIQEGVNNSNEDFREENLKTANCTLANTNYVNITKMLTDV
Kv1.1, sequence (Q09470 whole entry): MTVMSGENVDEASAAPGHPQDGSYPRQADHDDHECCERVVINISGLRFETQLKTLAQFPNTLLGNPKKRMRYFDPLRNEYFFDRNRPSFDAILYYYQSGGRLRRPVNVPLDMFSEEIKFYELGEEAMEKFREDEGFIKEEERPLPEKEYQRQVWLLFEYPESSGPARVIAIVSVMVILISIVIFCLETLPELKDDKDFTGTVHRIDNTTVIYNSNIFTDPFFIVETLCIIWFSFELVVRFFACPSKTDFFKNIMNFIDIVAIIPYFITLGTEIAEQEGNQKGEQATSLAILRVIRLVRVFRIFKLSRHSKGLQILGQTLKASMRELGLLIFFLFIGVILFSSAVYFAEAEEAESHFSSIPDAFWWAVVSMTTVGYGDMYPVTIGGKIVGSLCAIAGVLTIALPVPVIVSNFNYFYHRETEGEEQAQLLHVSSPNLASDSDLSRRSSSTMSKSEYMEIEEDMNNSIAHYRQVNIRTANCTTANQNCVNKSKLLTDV
SKMI, sequence (P35499 whole entry): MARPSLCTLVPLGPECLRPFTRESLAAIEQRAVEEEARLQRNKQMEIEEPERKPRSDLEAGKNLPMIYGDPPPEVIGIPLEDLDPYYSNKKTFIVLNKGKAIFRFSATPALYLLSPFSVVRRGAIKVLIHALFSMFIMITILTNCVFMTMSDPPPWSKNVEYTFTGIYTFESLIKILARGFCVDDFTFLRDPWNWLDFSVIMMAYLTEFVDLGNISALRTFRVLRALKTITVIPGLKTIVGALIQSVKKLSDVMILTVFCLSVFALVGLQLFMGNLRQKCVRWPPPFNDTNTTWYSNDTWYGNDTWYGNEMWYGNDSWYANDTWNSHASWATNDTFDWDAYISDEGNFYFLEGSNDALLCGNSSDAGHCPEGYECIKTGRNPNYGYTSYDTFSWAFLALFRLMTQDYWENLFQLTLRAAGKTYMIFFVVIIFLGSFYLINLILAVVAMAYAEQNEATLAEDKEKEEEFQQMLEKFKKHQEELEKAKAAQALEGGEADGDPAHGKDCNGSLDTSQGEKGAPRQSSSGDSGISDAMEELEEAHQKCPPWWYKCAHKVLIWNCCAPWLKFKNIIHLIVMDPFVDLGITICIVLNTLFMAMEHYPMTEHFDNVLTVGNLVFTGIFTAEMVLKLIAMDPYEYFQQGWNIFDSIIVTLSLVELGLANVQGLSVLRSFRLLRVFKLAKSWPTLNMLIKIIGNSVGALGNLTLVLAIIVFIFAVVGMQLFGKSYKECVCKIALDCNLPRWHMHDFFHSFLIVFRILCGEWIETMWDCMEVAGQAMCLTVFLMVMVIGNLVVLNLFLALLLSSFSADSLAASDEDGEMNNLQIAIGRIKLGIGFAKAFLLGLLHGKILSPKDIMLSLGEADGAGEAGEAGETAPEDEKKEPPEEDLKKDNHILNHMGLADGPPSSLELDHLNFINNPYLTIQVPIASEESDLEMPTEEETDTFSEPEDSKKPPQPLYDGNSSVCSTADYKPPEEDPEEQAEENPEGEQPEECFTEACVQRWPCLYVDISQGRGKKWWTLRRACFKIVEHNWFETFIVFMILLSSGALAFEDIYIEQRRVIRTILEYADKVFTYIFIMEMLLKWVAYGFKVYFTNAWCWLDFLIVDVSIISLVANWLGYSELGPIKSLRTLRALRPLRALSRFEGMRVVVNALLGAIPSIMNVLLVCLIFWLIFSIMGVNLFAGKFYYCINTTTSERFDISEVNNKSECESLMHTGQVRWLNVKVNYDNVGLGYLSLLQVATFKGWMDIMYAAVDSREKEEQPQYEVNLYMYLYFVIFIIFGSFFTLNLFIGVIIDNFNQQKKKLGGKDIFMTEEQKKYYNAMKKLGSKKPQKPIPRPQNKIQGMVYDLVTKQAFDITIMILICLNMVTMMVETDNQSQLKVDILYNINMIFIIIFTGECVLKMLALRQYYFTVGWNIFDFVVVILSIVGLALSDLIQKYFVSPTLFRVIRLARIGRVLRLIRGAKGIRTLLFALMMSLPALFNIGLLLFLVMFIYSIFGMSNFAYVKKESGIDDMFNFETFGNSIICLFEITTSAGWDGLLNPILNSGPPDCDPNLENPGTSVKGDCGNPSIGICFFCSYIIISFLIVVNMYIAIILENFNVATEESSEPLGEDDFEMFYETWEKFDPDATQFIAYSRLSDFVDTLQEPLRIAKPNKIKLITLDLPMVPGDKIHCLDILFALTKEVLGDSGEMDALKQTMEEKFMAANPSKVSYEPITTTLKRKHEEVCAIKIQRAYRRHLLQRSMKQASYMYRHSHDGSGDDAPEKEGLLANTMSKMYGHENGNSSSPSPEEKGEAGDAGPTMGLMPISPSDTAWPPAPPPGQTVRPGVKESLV
Kv1.4, sequence (P22459 whole entry): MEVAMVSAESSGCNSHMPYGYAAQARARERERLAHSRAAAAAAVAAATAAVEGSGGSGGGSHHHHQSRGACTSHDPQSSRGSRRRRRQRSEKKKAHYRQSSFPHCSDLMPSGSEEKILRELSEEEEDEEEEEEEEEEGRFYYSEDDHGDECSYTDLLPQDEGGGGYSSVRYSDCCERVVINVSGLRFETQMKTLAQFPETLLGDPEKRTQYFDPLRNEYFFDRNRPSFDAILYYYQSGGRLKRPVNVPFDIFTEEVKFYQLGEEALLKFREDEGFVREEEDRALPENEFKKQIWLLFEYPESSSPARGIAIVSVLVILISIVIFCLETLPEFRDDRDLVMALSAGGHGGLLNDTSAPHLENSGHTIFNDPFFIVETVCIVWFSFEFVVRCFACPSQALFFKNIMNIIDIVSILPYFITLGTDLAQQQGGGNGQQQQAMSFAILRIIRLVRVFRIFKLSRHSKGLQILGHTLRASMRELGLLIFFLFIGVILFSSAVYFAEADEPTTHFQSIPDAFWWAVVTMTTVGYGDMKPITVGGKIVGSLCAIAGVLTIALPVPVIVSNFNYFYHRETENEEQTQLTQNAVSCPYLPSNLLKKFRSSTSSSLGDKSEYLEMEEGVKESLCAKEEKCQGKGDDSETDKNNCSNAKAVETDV

With `O=c1ccc2cc3ccoc3c(OCc3ccc(COc4c5occc5cc5ccc(=O)oc45)cc3)c2o1` [compound 3, reference compound], binding at Kv1.3 was characterised by a dissociation constant (Kd) of 17 µM.
The same measure, in the same setting: the same measure for `COc1c(C(C)=O)c(OCc2cccc(COc3c(C(C)=O)c(OC)c4ccoc4c3OC)c2)c(OC)c2occc12` [compound 5, reference compound]: 0.56 µM.
For `COc1c(C(C)=O)c(OCCOCCOc2c(C(C)=O)c(OC)c3ccoc3c2OC)c(OC)c2occc12` [Example 5], the Kd on Kv1.3 worked out at 4 µM. The “Solubility in aqueous media” value in series [1] is “significantly more soluble in aqueous conditions than comparative example 2”.
Take `COc1c(C(C)=O)c(OCCCCCCOc2c(C(C)=O)c(OC)c3ccoc3c2OC)c(OC)c2occc12` [Example 2]: the “Normalised [3H]-TdR incorporation” value in series [2] (100 nM) is listed as 0.86 +/− 0.04; in [2] (250 nM), 0.76 +/− 0.06; in series [2] (1 μM), 0.38 +/− 0.05; in series [2] (10 μM) it was 0.01 +/− 0.003. In addition, the EC50 in [2] (Homo sapiens, read-out: EC50, inhibition of [3H]-thymidine incorporation) was approximately 800 nM. The “Kind of block (Kv1.3)” value at Kv1.3 is “Block phasic”. For the same compound, the Kd on Kv1.3 is 0.68 µM; on Kv1.2, 250 nM; on Kv1.1 it was 320 nM. In series [1], the “Solubility in aqueous media” value is reported as “soluble enough in aqueous media to be tested”.
As to `COc1c(C(C)=O)c(OCc2ccc(COc3c(C(C)=O)c(OC)c4ccoc4c3OC)cc2)c(OC)c2occc12` [compound 4], in “Stability”, the Stability entry is reported as “good stability”. In addition, on SKMI, the “Effect on SKMI” value is given as “No effect”. Besides, the dissociation constant (Kd) on Kv1.4 is 2200 nM; at Kv1.3, 0.28 µM; at Kv1.2, 5000 nM; at Kv1.1, 3000 nM; on IKCa1, more than 20 µM; on Kv1.5 it was 1100 nM. Further, the “Solubility in aqueous media” value in series [1] is given as “so poorly soluble in aqueous media”.
In the case of `COC(=O)c1cc(COc2c(C(C)=O)c(OC)c3ccoc3c2OC)ccc1COc1c(C(C)=O)c(OC)c2ccoc2c1OC` [Example 7, 2,5-Bis(5-acetyl-4,7-dimethoxy-6-benzofuran-6-yloxymethyl)benzoic acid, methyl ester], the melting point lay within 87 to 89 °C. Besides, the dissociation constant (Kd) on Kv1.3 amounted to 3 µM.
In turn, `COc1c(C(C)=O)c(OCc2ccccc2COc2c(C(C)=O)c(OC)c3ccoc3c2OC)c(OC)c2occc12` [compound 6, reference compound] gave a Kd at Kv1.3 of 7 µM.
For `COc1c2occc2cc2ccc(=O)oc12` [Comparative Example 2 (3-MOP)], binding at Kv1.3 was characterised by a dissociation constant (Kd) of 160 µM.
The same measure, in the same setting: the same measure for `COc1c(C(C)=O)c(O)c(OC)c2occc12` [Comparative Example 1 (Khellinone)]: 70 µM.
Take `COc1c(C(C)=O)c(OCCCCCOc2c(C(C)=O)c(OC)c3ccoc3c2OC)c(OC)c2occc12` [Example 1]: the Kd at Kv1.3 is 0.82 µM; at Kv1.2, 1500 nM. In series [1], the “Solubility in aqueous media” value was “soluble enough in aqueous media to be tested”.
On Kv1.3, `COc1c(C(C)=O)c(OCc2ccc(COc3c(C(C)=O)c(OC)c4ccoc4c3OC)c(C(=O)O)c2)c(OC)c2occc12` [Example 8, 2,5-Bis(5-acetyl-4,7-dimethoxybenzofuran-6-yloxymethyl)benzoic acid] gave an equilibrium dissociation constant (Kd) of 5 µM.
On Kv1.3, `COc1c(C(C)=O)c(OCc2ccc(COc3cc4occc4c(OC)c3C(C)=O)cc2)cc2occc12` [Example 4, 1,4-bis(5-acetyl-4-methoxybenzofuran-6-yloxymethyl)benzene] had a Kd of 1.1 µM. Besides, the “Effect on Kv1.2” value at Kv1.2 (at 5 μM) was “No effect”.

The term Kd denotes a measure of binding affinity in units of concentration. Low values mean higher affinity, high ones lower affinity. Broadly, the melting point is the temperature, or range, at which the solid turns liquid.

For the origin of these results see patent US7507839B2, “Therapeutic ion channel blocking agents and methods of use thereof” (The Walter and Eliza Hall Institute of Medical Research, priority 2002, dated 2009).
